Bounds are passed on as bounds.

Here are results for 51 molecules from patent publication US11505558B1, “Antiviral heterocyclic compounds” (Enanta Pharmaceuticals, Inc., priority 2019, dated 2022).

The test system of this experiment is genotype A, "Long" strain RSV. Briefly: RSV-A assay (CPE, ATPlite readout in Hep-2 cells). It counts as cell-based. The conditions noted are these: human respiratory syncytial virus, HEp-2, Hep-2 cells, genotype A "Long" strain RSV, MOI 0.1; read-out: Human RSV-A (“Long” strain) EC50. The method in brief:
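Protection from RSV-induced cytopathic effect, measured as ATPlite luminescence after 5 days, gave EC50 values. Assay used genotype A Long strain at MOI 0.1 on Hep-2 cells seeded at 8,000/well in DMEM growth media with 10% FBS; compounds tested as 2-fold dilutions in duplicate.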
On the technique in general: Cellular ATP, detected with luciferase, serves as a proxy for viable cell number.
On to `CC(C)(O)c1ccc2cc(C(=O)NC[C@](O)(c3cc4c(c(-c5ccc(F)cc5)n3)OC[C@]4(C)C(N)=O)C(F)(F)F)cc(OC3CC3)c2n1` [Example 407], for which the EC50 was greater than 200 nM. The same measure for `CNC(=O)Nc1cc(C(=O)NC[C@](O)(c2cc3c(c(-c4ccc(F)cc4)n2)OC[C@]3(C)C(N)=O)C(F)(F)F)cc2cccnc12` [Example 409]: less than 200 nM; for `C[C@]1(C(N)=O)COc2c1cc([C@@](O)(CNC(=O)c1cc(NC(=O)N3CCC3)c3ncccc3c1)C(F)(F)F)nc2-c1ccc(F)cc1` [Example 410]: less than 200 nM; for `CC(C)(O)CNC(=O)Nc1cc(C(=O)NC[C@](O)(c2cc3c(c(-c4ccc(F)cc4)n2)OC[C@]3(C)C(N)=O)C(F)(F)F)cc2cccnc12` [Example 412]: less than 200 nM. Next, `C[C@]1(C(N)=O)COc2c1cc([C@@](O)(CNC(=O)c1cc(NC(=O)NC3CNC3)c3ncccc3c1)C(F)(F)F)nc2-c1ccc(F)cc1` [Example 413]: greater than 200 nM.

As to `C[C@]1(C(N)=O)COc2c1cc([C@@](O)(CNC(=O)c1cc(NC(=O)NC3COC3)c3ncccc3c1)C(F)(F)F)nc2-c1ccc(F)cc1` [Example 414], the EC50 was less than 200 nM. The same measure for `C[C@]1(C(N)=O)COc2c1cc([C@@](O)(CNC(=O)c1cc(NC(=O)NC3CC3)c3ncccc3c1)C(F)(F)F)nc2-c1ccc(F)cc1` [Example 415]: less than 200 nM; for `C[C@]1(C(N)=O)COc2c1cc([C@@](O)(CNC(=O)c1ccc3nc(N)oc3c1)C(F)(F)F)nc2-c1ccc(F)cc1` [Example 425]: less than 200 nM; for `C[C@]1(C(N)=O)COc2c1cc([C@@](O)(CNC(=O)c1ccc3nc(N)oc3c1)C(F)(F)F)nc2-c1ccc(F)c(Cl)c1` [Example 426]: less than 200 nM. The same measure for `COc1cc(C(=O)NC[C@](O)(c2cc3c(c(-c4ccc(F)cc4)n2)OC[C@]3(C)C(N)=O)C(F)(F)F)cc2cn(C)nc12` [Example 427]: less than 200 nM; for `COc1cc(C(=O)NC[C@](O)(c2cc3c(c(-c4ccc(F)c(Cl)c4)n2)OC[C@]3(C)C(N)=O)C(F)(F)F)cc2cn(C)nc12` [Example 428]: less than 200 nM; for `C[C@]1(C(N)=O)COc2c1cc([C@@](O)(CNC(=O)c1ccc3nc(N)sc3c1)C(F)(F)F)nc2-c1ccc(F)c(Cl)c1` [Example 432]: less than 200 nM. Next, `COc1cc(C(=O)NC[C@](O)(c2cc3c(c(-c4ccc(Cl)c(F)c4)n2)OC[C@]3(C)C(N)=O)C(F)(F)F)cc2sc(N)nc12` [Example 434]: less than 200 nM. `COc1cc(C(=O)NC[C@](O)(c2cc3c(c(-c4ccc(C)cc4)n2)OC[C@]3(C)C(N)=O)C(F)(F)F)cc2sc(N)nc12` [Example 435]: the EC50 was less than 200 nM. Next, `CN(C)c1nc2ccc(C(=O)NC[C@](O)(c3cc4c(c(-c5ccc(F)cc5)n3)OC[C@]4(C)C(N)=O)C(F)(F)F)cc2s1` [Example 438]: less than 200 nM. Next, `CNc1nc2ccc(C(=O)NC[C@](O)(c3cc4c(c(-c5ccc(F)cc5)n3)OC[C@]4(C)C(N)=O)C(F)(F)F)cc2s1` [Example 439]: less than 200 nM. The same measure for `C[C@]1(C(N)=O)COc2c1cc([C@@](O)(CNC(=O)c1ccc3nc(NC4CC4)sc3c1)C(F)(F)F)nc2-c1ccc(F)cc1` [Example 440]: less than 200 nM; for `C[C@]1(C(N)=O)COc2c1cc([C@@](O)(CNC(=O)c1ccc3nc(N)sc3c1)C1CC1)nc2-c1ccc(F)cc1` [Example 441]: less than 200 nM. Regarding `C[C@]1(C(N)=O)COc2c1cc([C@@](O)(CNC(=O)c1cc(O)c3nc(N)sc3c1)C(F)(F)F)nc2-c1ccc(F)cc1` [Example 442], the EC50 is less than 200 nM.

Turning to `C[C@]1(C(N)=O)COc2c1cc([C@@](O)(CNC(=O)c1cc(F)c3nc(N)sc3c1)C(F)(F)F)nc2-c1ccc(F)cc1` [Example 443], the EC50 was less than 200 nM.

For the molecule `Cn1c(N)nc2cc(C(=O)NC[C@](O)(c3cc4c(c(-c5ccc(F)cc5)n3)OC[C@]4(C)C(N)=O)C(F)(F)F)ccc21` [Example 447], the EC50 is greater than 200 nM. Next, `C[C@]1(C(N)=O)COc2c1cc([C@@](O)(CNC(=O)c1ccc3nc(N)sc3c1)C(F)(F)F)nc2-c1ccc(Cl)cc1` [Example 448]: less than 200 nM.

Take `C[C@]1(C(=O)NC2(C#N)CC2)COc2c1cc([C@@](O)(CNC(=O)c1cc(OC3CC3)c3ncccc3c1)C(F)(F)F)nc2-c1ccc(F)cc1` [Example 450]: the EC50 is less than 200 nM. The same measure for `CC(C)(C)NC(=O)[C@@]1(C)COc2c1cc([C@@](O)(CNC(=O)c1cc(OC3CC3)c3ncccc3c1)C(F)(F)F)nc2-c1ccc(F)cc1` [Example 453]: less than 200 nM. Next, `CC(=O)NCCNC(=O)[C@@]1(C)COc2c1cc([C@@](O)(CNC(=O)c1cc(OC3CC3)c3ncccc3c1)C(F)(F)F)nc2-c1ccc(F)cc1` [Example 454]: greater than 200 nM; `CC(=O)NCCCNC(=O)[C@@]1(C)COc2c1cc([C@@](O)(CNC(=O)c1cc(OC3CC3)c3ncccc3c1)C(F)(F)F)nc2-c1ccc(F)cc1` [Example 455]: less than 200 nM; `CCCNC(=O)[C@@]1(C)COc2c1cc([C@@](O)(CNC(=O)c1cc(OC3CC3)c3ncccc3c1)C(F)(F)F)nc2-c1ccc(F)cc1` [Example 456]: less than 200 nM. The same measure for `C[C@]1(C(=O)NCCCOC(N)=O)COc2c1cc([C@@](O)(CNC(=O)c1cc(OC3CC3)c3ncccc3c1)C(F)(F)F)nc2-c1ccc(F)cc1` [Example 457]: less than 200 nM; for `C[C@]1(C(=O)NC(=N)N)COc2c1cc([C@@](O)(CNC(=O)c1cc(OC3CC3)c3ncccc3c1)C(F)(F)F)nc2-c1ccc(F)cc1` [Example 458]: greater than 200 nM; for `CNC(=O)NCCNC(=O)[C@@]1(C)COc2c1cc([C@@](O)(CNC(=O)c1cc(OC3CC3)c3ncccc3c1)C(F)(F)F)nc2-c1ccc(F)cc1` [Example 461]: greater than 200 nM.

Consider `CNC(=O)NCCCNC(=O)[C@@]1(C)COc2c1cc([C@@](O)(CNC(=O)c1cc(OC3CC3)c3ncccc3c1)C(F)(F)F)nc2-c1ccc(F)cc1` [Example 462], for which the EC50 is greater than 200 nM.

With `C[C@]1(C(=O)NCCN)COc2c1cc([C@@](O)(CNC(=O)c1cc(OC3CC3)c3ncccc3c1)C(F)(F)F)nc2-c1ccc(F)cc1` [Example 463], the EC50 is greater than 200 nM. On to `C[C@]1(C(=O)N2CC[C@@H](O)C2)COc2c1cc([C@@](O)(CNC(=O)c1cc(OC3CC3)c3ncccc3c1)C(F)(F)F)nc2-c1ccc(F)cc1` [Example 468], for which the EC50 was greater than 200 nM. Next, `C[C@]1(C(=O)N2CC[C@H](O)C2)COc2c1cc([C@@](O)(CNC(=O)c1cc(OC3CC3)c3ncccc3c1)C(F)(F)F)nc2-c1ccc(F)cc1` [Example 469]: greater than 200 nM; `C[C@]1(C(=O)N2CC(O)C2)COc2c1cc([C@@](O)(CNC(=O)c1cc(OC3CC3)c3ncccc3c1)C(F)(F)F)nc2-c1ccc(F)cc1` [Example 470]: greater than 200 nM. The same measure for `CC(C)CCNC(=O)[C@@]1(C)COc2c1cc([C@@](O)(CNC(=O)c1cc(OC3CC3)c3ncccc3c1)C(F)(F)F)nc2-c1ccc(F)cc1` [Example 472]: greater than 200 nM. The same measure for `CNC(=O)CCNC(=O)[C@@]1(C)COc2c1cc([C@@](O)(CNC(=O)c1cc(OC3CC3)c3ncccc3c1)C(F)(F)F)nc2-c1ccc(F)cc1` [Example 474]: less than 200 nM; for `C[C@]1(C(=O)NCC(N)=O)COc2c1cc([C@@](O)(CNC(=O)c1cc(OC3CC3)c3ncccc3c1)C(F)(F)F)nc2-c1ccc(F)cc1` [Example 476]: less than 200 nM; for `C[C@]1(C(=O)NCCNC(N)=O)COc2c1cc([C@@](O)(CNC(=O)c1cc(OC3CC3)c3ncccc3c1)C(F)(F)F)nc2-c1ccc(F)cc1` [Example 478]: greater than 200 nM. With `C[C@]1(C(=O)NCc2ccc[nH]2)COc2c1cc([C@@](O)(CNC(=O)c1cc(OC3CC3)c3ncccc3c1)C(F)(F)F)nc2-c1ccc(F)cc1` [Example 480], the EC50 is less than 200 nM. As to `CC(C)(O)CCNC(=O)[C@@]1(C)COc2c1cc([C@@](O)(CNC(=O)c1cc(OC3CC3)c3ncccc3c1)C(F)(F)F)nc2-c1ccc(F)cc1` [Example 483], the concentration for a half-maximal effect (EC50) is less than 200 nM.

As to `C[C@]1(C(=O)NCCc2ccccc2)COc2c1cc([C@@](O)(CNC(=O)c1cc(OC3CC3)c3ncccc3c1)C(F)(F)F)nc2-c1ccc(F)cc1` [Example 486], the concentration for a half-maximal effect (EC50) was greater than 200 nM. The same measure for `C[C@]1(C(=O)NCCCc2ccccc2)COc2c1cc([C@@](O)(CNC(=O)c1cc(OC3CC3)c3ncccc3c1)C(F)(F)F)nc2-c1ccc(F)cc1` [Example 487]: greater than 200 nM; for `CC(C)(O)C(F)(F)CNC(=O)[C@@]1(C)COc2c1cc([C@@](O)(CNC(=O)c1cc(OC3CC3)c3ncccc3c1)C(F)(F)F)nc2-c1ccc(F)cc1` [Example 488]: less than 200 nM; for `C[C@]1(C(=O)NCC2(O)CC2)COc2c1cc([C@@](O)(CNC(=O)c1cc(OC3CC3)c3ncccc3c1)C(F)(F)F)nc2-c1ccc(F)cc1` [Example 489]: less than 200 nM. Consider `C[C@]1(C(=O)NCc2ccoc2)COc2c1cc([C@@](O)(CNC(=O)c1cc(OC3CC3)c3ncccc3c1)C(F)(F)F)nc2-c1ccc(F)cc1` [Example 490], for which the EC50 is less than 200 nM. Next, `C[C@]1(C(=O)NCCC2(O)CC2)COc2c1cc([C@@](O)(CNC(=O)c1cc(OC3CC3)c3ncccc3c1)C(F)(F)F)nc2-c1ccc(F)cc1` [Example 491]: less than 200 nM.

`COc1cc(C(=O)NC[C@](O)(c2cc3c(c(-c4ccc(F)cc4)n2)OC[C@]3(C)C(=O)NCCC(C)(C)O)C(F)(F)F)cc2cccnc12` [Example 494]: the concentration for a half-maximal effect (EC50) is less than 200 nM.

Regarding `CC(C)(O)CNC(=O)[C@@]1(C)COc2c1cc([C@@](O)(CNC(=O)c1cc(Cl)c3ncccc3c1)C(F)(F)F)nc2-c1ccc(F)cc1` [Example 496], the EC50 is less than 200 nM. Next, `CC(C)(O)CNC(=O)[C@@]1(C)COc2c1cc([C@@](O)(CNC(=O)c1ccc3nc(N)oc3c1)C(F)(F)F)nc2-c1ccc(F)cc1` [Example 498]: less than 200 nM.

For the molecule `Cc1cnc2c(OC3CC3)cc(C(=O)NC[C@](O)(c3cc4c(c(-c5ccc(F)cc5)n3)OC[C@]4(C)C(=O)NCC(C)(C)O)C(F)(F)F)cc2c1` [Example 499], the EC50 was less than 200 nM.

The term EC50 denotes the concentration at which the effect is half-maximal.
